Target: Beta-galactosidase (Escherichia coli, UniProt Q8VNN2)
Test: beta-galactosidase enzyme inhibitors and activators, dose response, artefact control for CCR6 antagonist project, biochemical, E. coli enzyme, set 3 (AID 504712)

Sequence of Beta-galactosidase (Q8VNN2 whole entry): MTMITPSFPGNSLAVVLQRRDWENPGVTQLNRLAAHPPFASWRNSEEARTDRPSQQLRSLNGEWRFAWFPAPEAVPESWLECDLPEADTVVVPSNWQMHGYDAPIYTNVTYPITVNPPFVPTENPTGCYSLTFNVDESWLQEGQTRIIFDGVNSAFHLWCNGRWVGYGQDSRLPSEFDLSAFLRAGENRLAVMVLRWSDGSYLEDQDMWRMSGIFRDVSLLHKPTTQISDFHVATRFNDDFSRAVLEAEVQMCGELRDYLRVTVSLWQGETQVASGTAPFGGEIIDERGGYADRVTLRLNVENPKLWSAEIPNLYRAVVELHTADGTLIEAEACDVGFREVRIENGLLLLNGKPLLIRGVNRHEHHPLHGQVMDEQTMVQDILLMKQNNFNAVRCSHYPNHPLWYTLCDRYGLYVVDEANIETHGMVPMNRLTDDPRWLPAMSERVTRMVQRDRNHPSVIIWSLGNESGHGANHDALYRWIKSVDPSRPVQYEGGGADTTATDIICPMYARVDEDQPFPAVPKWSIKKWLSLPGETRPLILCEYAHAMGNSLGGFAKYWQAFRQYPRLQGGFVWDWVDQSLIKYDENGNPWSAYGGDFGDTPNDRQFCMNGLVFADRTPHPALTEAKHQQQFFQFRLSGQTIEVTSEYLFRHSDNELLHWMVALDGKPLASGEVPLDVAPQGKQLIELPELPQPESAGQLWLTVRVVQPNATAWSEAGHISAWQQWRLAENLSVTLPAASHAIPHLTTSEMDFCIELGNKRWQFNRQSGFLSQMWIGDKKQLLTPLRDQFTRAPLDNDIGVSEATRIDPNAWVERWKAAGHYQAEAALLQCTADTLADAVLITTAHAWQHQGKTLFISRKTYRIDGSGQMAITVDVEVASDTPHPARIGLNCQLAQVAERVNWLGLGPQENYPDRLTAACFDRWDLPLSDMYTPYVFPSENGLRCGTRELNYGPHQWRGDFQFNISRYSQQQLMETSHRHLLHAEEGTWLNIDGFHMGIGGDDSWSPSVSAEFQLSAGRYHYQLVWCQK

Structure (SMILES) | IC50 [µM]
CN(C)c1nc(N=NCc2ccccc2O)nc(Nc2ccc(F)cc2)n1 [(6E)-6-[[2-[4-(dimethylamino)-6-(4-fluoroanilino)-1,3,5-triazin-2-yl]hydrazinyl]methylidene]cyclohexa-2,4-dien-1-one] | > 66.6
CCOc1ccc(CN=Nc2ccc(S(=O)(=O)Nc3ccccc3C(=O)O)cc2[N+](=O)[O-])cc1 | > 66.6
O=C1C=CC([N+](=O)[O-])=CC1CN=Nc1nnn[nH]1 (stereo not drawn) | > 66.6
O=C1C(O)=CC=CC1CN=Nc1ccc([N+](=O)[O-])cc1 (stereo not drawn) [MLS001207776] | > 66.6
Oc1ccccc1-c1nnc(Sc2cc(O)n(-c3ccccc3)c2O)o1 [3-[[(2Z)-2-(6-oxo-1-cyclohexa-2,4-dienylidene)-3H-1,3,4-oxadiazol-5-yl]thio]-1-phenylpyrrolidine-2,5-dione] | > 66.6
COC1=CC=CC(CN=Nc2nc(Nc3ccc([N+](=O)[O-])cc3)nc(N3CCCC3)n2)C1=O (stereo not drawn) [2-hydroxy-3-methoxybenzaldehyde {4-[(4-nitrophenyl)amino]-6-pyrrolidin-1-yl-1,3,5-triazin-2-yl}hydrazone] | > 66.6
CC(NO)C(=O)C(=CN1CCCCC1)CN1CCCCC1 (stereo not drawn) | > 66.6
Cc1c(NN=C2C(=O)CC(C)(C)CC2=O)c(=O)n(-c2ccccc2)n1C [2-[(1,5-dimethyl-3-oxidanylidene-2-phenyl-pyrazol-4-yl)hydrazinylidene]-5,5-dimethyl-cyclohexane-1,3-dione] | > 66.6
CC(C)(C)C1CCC(=NNC(=S)NCc2ccccc2)CC1 (stereo not drawn) [SMR000377499] | > 66.6
COc1ccc(-n2c(O)c(CN=Nc3nc(C)cc(C)n3)c3ccccc3c2=O)cc1OC [SMR000385482] | > 66.6
Cc1cc(C)cc(-n2c(O)cc(Sc3nnnn3-c3ccccc3)c2O)c1 [1-(3,5-dimethylphenyl)-3-(1-phenyltetrazol-5-yl)sulfanylpyrrolidine-2,5-dione] | > 66.6
O=C(NN=CC1C=C([N+](=O)[O-])C=CC1=O)Nc1ccccc1 (stereo not drawn) [MLS000713965] | > 66.6
C=CCSC(N)=NN=CC1C=C(Br)C=C([N+](=O)[O-])C1=O (stereo not drawn) [N''-[[(E)-(3-bromo-5-nitro-6-oxo-1-cyclohexa-2,4-dienylidene)methyl]amino]carbamimidothioic acid prop-2-enyl ester] | > 66.6
C=CCOc1ccc(CN=Nc2ccc(S(=O)(=O)Nc3ccccc3C(=O)O)cc2[N+](=O)[O-])cc1OC [2-[[4-[2-[(3-methoxy-4-prop-2-enoxy-phenyl)methylidene]hydrazinyl]-3-nitro-phenyl]sulfonylamino]benzoic acid] | > 66.6
Oc1cc(Sc2nnnn2-c2ccccc2)c(O)n1-c1cccc(Cl)c1 | > 66.6
O=C1C(/C=N/c2ccc(N3CCOCC3)cc2)=CC(Cc2ccccc2)C=C1[N+](=O)[O-] (stereo not drawn) [SMR000231104] | > 66.6
C/C=C(\C)C(=O)OC1[C@H](OC(C)=O)C2(CO)C(CC1(C)C)C1=CCC3C4(C)CCC(O[C@@H]5O[C@H](C(=O)O)[C@@H](O[C@@H]6O[C@H](CO)[C@@H](O)[C@H](O)[C@H]6O)[C@H](O)[C@H]5O[C@H]5O[C@H](CO)[C@@H](O)[C@H](O)[C@H]5O)[C@](C)(CO)C4CCC3(C)[C@]1(C)C[C@H]2O (stereo partly drawn) [MLS002695979] | > 66.6
O=C1C([N+](=O)[O-])=CC(Cl)=CC1CN=Nc1ccccn1 (stereo not drawn) [MLS000539830] | > 66.6
O=C1C=CC([N+](=O)[O-])=CC1CN=Nc1ccccn1 (stereo not drawn) [MLS000585015] | > 66.6
Oc1cc(Sc2nnnn2C2CCCCC2)c(O)n1-c1ccccc1 [3-[(1-cyclohexyl-1,2,3,4-tetrazol-5-yl)sulfanyl]-1-phenyl-pyrrolidine-2,5-dione] | > 66.6
Cc1cc2nc(-n3c(O)c[nH]c3=S)sc2cc1C [SMR000272190] | > 66.6
COc1cccc(CN=Nc2nc(Nc3ccccc3)nc(-n3nc(C)cc3C)n2)c1O [(6E)-6-[[2-[4-(3,5-dimethylpyrazol-1-yl)-6-phenylazanyl-1,3,5-triazin-2-yl]hydrazinyl]methylidene]-2-methoxy-cyclohexa-2,4-dien-1-one] | > 66.6

Structure (SMILES) | IC50 [µM]
N#CC(=C1C=CC(N=O)C(Cl)=C1)c1ccc(Cl)cc1 (stereo not drawn) [SMR001570423] | > 66.6
O=C1C=CC=CC1CN=Nc1ccc([N+](=O)[O-])cn1 (stereo not drawn) [MLS002608402] | 46
O=C1C([N+](=O)[O-])=CC=CC1CN=Nc1ccc2ccccc2n1 (stereo not drawn) [(6E)-2-nitro-6-[(2-quinolin-2-ylhydrazinyl)methylidene]cyclohexa-2,4-dien-1-one] | > 66.6
CCOc1ccc(CN=Nc2ccc(S(=O)(=O)Nc3ccccc3C(=O)O)cc2[N+](=O)[O-])cc1OC [SMR001308940] | > 66.6
CCCC1CCC(=NNC(=S)NCCc2ccccc2)CC1 (stereo not drawn) [SMR000347544] | > 66.6
CN1C(=O)C(C2CC(c3ccc(Cl)cc3)N=N2)C(=O)N(C)C1=O (stereo not drawn) [SMR000439471] | > 66.6
Oc1c(Cl)c(N=CCc2ccccc2)c(O)c2ccccc12 [MLS002608293] | > 66.6
CCOc1ccc(-n2c(O)cc(Sc3nnnn3-c3ccccc3)c2O)cc1 [SMR000271658] | > 66.6
CC1=NN(c2ccccc2)C(=O)/C1=C/NN1C(=O)c2ccc3c4c(ccc(c24)C1=O)CC3 [SMR000171439] | > 66.6
CCOC1=CC(=Cc2c(-c3ccccc3)[nH]n(-c3nc(-c4ccc(Br)cc4)cs3)c2=O)C=CC1=O | > 66.6
O=C(O)c1ccc(N=NC=CCc2ccc([N+](=O)[O-])o2)cc1 [SMR000590759] | 33
Cc1cc(N=NCc2ccc(F)cc2)nc(-n2nc(C)cc2C)n1 [SMR000426945] | > 66.6
Cc1cc(C)nc(NNC=C2C(=O)CC(c3ccc(F)cc3)CC2=O)n1 (stereo not drawn) | > 66.6
Cc1ccc2nc(-n3c(O)c[nH]c3=S)sc2c1 | > 66.6
O=C1Nc2ccc([N+](=O)[O-])cc2/C1=N/NC(=O)c1cc(-c2ccccc2Cl)nc2ccccc12 [2-(2-chlorophenyl)-N'-(2-keto-5-nitro-indol-3-yl)cinchoninohydrazide] | > 66.6
CN1C(=O)/C(=C2/C(=O)Nc3ccccc32)NC1=S [SMR000198608] | > 66.6
CC(N=Nc1ccc2ccccc2n1)c1ccccc1O (stereo not drawn) [(6Z)-6-[1-[N'-(2-quinolyl)hydrazino]ethylidene]cyclohexa-2,4-dien-1-one] | > 66.6
O=Nc1c(C2C(=O)Nc3cc(Br)ccc32)[nH]c2ccccc12 (stereo not drawn) [6-bromoindirubin-3-oxime] | 40.8
Cc1ccccc1-n1c(O)cc(Sc2nnc(-c3ccccc3)o2)c1O [1-(2-methylphenyl)-3-[(5-phenyl-1,3,4-oxadiazol-2-yl)sulfanyl]pyrrolidine-2,5-dione] | > 66.6
C=c1c(O)c(O)cc2c1=CC=C1[C@@]2(C)CC[C@@]2(C)[C@@H]3C[C@](C)(C(=O)O)CC[C@]3(C)CC[C@]12C | > 66.6
COc1ccc(-n2c(O)cc(Sc3nnc(-c4ccccc4)o3)c2O)cc1 [1-(4-methoxyphenyl)-3-[(5-phenyl-1,3,4-oxadiazol-2-yl)thio]pyrrolidine-2,5-dione] | > 66.6
